Results reported in publication PMC6409085, “Three odorant-binding proteins are involved in the behavioral response of Sogatella furcifera to rice plant volatiles” (PeerJ, 2019).
pIC50: −log10 of the molar value. Where “and” joins values, the source holds several entries; their conditions need not be identical. Identical values can stand only once.

Assays:
Test in all cases: biochemical
Assay type in all cases: binding
SfurOBP3 = SfurOBP3 (Sogatella furcifera, UniProt V5T818); conditions: for Fluorescence competitive binding assay, fluorescence intensity: OBP3, three replicate columns
Chain of SfurOBP3 (V5T818 entry or part of it): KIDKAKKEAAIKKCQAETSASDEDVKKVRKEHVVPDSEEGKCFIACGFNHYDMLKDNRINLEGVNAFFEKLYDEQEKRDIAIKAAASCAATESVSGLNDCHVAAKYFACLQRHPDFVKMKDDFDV
Method in brief: (§1)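 1-NPN displacement assay with odorant competitor at 2–20 µM; protein and probe both 2.0 µM at pH 7.4. Ki is calculated from IC50 using the protein/1-NPN dissociation constant.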

SfurOBP11 = SfurOBP11 (Sogatella furcifera, UniProt V5T6E3)
Chain of SfurOBP11 (V5T6E3 entry or part of it): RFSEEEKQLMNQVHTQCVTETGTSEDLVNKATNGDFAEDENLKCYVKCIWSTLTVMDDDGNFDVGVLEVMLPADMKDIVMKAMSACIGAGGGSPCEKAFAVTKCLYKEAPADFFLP
Method in brief: as §1

SfurOBP1 = SfurOBP1 (Sogatella furcifera, UniProt V5T8N5); conditions: for Fluorescence competitive binding assay, fluorescence intensity: OBP1, three replicate columns
Chain of SfurOBP1 (V5T8N5 entry or part of it): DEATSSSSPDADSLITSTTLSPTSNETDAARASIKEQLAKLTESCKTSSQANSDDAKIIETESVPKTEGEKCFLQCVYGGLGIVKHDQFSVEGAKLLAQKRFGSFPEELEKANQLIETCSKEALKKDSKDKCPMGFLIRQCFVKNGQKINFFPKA
Method in brief: as §1

SfurOBP2 = SfurOBP2 (Sogatella furcifera, UniProt V5T759)
Chain of SfurOBP2 (V5T759 entry or part of it): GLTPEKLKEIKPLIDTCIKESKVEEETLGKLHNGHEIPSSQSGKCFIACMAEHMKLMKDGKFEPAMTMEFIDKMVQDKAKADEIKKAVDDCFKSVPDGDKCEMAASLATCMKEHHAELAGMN
Method in brief: as §1

- Fluorescence competitive binding assay, fluorescence intensity (SfurOBP3; ligand concentration 2): 69046 and 56769 and 63691
- Fluorescence competitive binding assay, fluorescence intensity (SfurOBP3; ligand concentration 4): 61024 and 72407 and 63576
- Fluorescence competitive binding assay, fluorescence intensity (SfurOBP3; ligand concentration 6): 62953 and 54664 and 55739
- Fluorescence competitive binding assay, fluorescence intensity (SfurOBP3; ligand concentration 8): 48630 and 46017 and 57385
- Fluorescence competitive binding assay, fluorescence intensity (SfurOBP3; ligand concentration 10): 48455 and 41384 and 49192
- Fluorescence competitive binding assay, fluorescence intensity (SfurOBP3; ligand concentration 12): 44417 and 51591 and 51023
- Fluorescence competitive binding assay, fluorescence intensity (SfurOBP3; ligand concentration 14): 42917 and 40156 and 40042
- Fluorescence competitive binding assay, fluorescence intensity (SfurOBP3; ligand concentration 16): 37264 and 50015 and 45340
- Fluorescence competitive binding assay, fluorescence intensity (SfurOBP3; ligand concentration 18): 66503 and 59244 and 47400
- Fluorescence competitive binding assay, fluorescence intensity (SfurOBP3; ligand concentration 20): 55843 and 55740 and 43544
- pIC50 (SfurOBP3; SfurOBP3, protein and 1-NPN both 2.0 µM, competitor 2-20 µM, read-out: IC50): < 4.70
- pIC50 (SfurOBP11; SfurOBP11, protein and 1-NPN both 2.0 µM, competitor 2-20 µM, read-out: IC50): < 4.70
- Fluorescence intensity, fluorescence competitive binding assay, OBP11 (SfurOBP11; ligand concentration 2, replicate 1): 21809
- Fluorescence intensity, fluorescence competitive binding assay, OBP11 (SfurOBP11; ligand concentration 2, replicate 2): 24436
- Fluorescence intensity, fluorescence competitive binding assay, OBP11 (SfurOBP11; ligand concentration 2, replicate 3): 21028
- Fluorescence intensity, fluorescence competitive binding assay, OBP11 (SfurOBP11; ligand concentration 4, replicate 1): 21555
- Fluorescence intensity, fluorescence competitive binding assay, OBP11 (SfurOBP11; ligand concentration 4, replicate 2): 21532
- Fluorescence intensity, fluorescence competitive binding assay, OBP11 (SfurOBP11; ligand concentration 4, replicate 3): 20733
- Fluorescence intensity, fluorescence competitive binding assay, OBP11 (SfurOBP11; ligand concentration 6, replicate 1): 20973
- Fluorescence intensity, fluorescence competitive binding assay, OBP11 (SfurOBP11; ligand concentration 6, replicate 2): 20501
- Fluorescence intensity, fluorescence competitive binding assay, OBP11 (SfurOBP11; ligand concentration 6, replicate 3): 20737
- Fluorescence intensity, fluorescence competitive binding assay, OBP11 (SfurOBP11; ligand concentration 8, replicate 1): 20324
- Fluorescence intensity, fluorescence competitive binding assay, OBP11 (SfurOBP11; ligand concentration 8, replicate 2): 20139
- Fluorescence intensity, fluorescence competitive binding assay, OBP11 (SfurOBP11; ligand concentration 8, replicate 3): 20508
- Fluorescence intensity, fluorescence competitive binding assay, OBP11 (SfurOBP11; ligand concentration 10, replicate 1): 20121
- Fluorescence intensity, fluorescence competitive binding assay, OBP11 (SfurOBP11; ligand concentration 10, replicate 2): 20422
- Fluorescence intensity, fluorescence competitive binding assay, OBP11 (SfurOBP11; ligand concentration 10, replicate 3): 20353
- Fluorescence intensity, fluorescence competitive binding assay, OBP11 (SfurOBP11; ligand concentration 12, replicate 1): 19850
- Fluorescence intensity, fluorescence competitive binding assay, OBP11 (SfurOBP11; ligand concentration 12, replicate 2): 19980
- Fluorescence intensity, fluorescence competitive binding assay, OBP11 (SfurOBP11; ligand concentration 12, replicate 3): 19737
- Fluorescence intensity, fluorescence competitive binding assay, OBP11 (SfurOBP11; ligand concentration 14, replicate 1): 21701
- Fluorescence intensity, fluorescence competitive binding assay, OBP11 (SfurOBP11; ligand concentration 14, replicate 2): 22333
- Fluorescence intensity, fluorescence competitive binding assay, OBP11 (SfurOBP11; ligand concentration 14, replicate 3): 21069
- Fluorescence intensity, fluorescence competitive binding assay, OBP11 (SfurOBP11; ligand concentration 16, replicate 1): 21665
- Fluorescence intensity, fluorescence competitive binding assay, OBP11 (SfurOBP11; ligand concentration 16, replicate 2): 22169
- Fluorescence intensity, fluorescence competitive binding assay, OBP11 (SfurOBP11; ligand concentration 16, replicate 3): 22138
- Fluorescence intensity, fluorescence competitive binding assay, OBP11 (SfurOBP11; ligand concentration 18, replicate 1): 22525
- Fluorescence intensity, fluorescence competitive binding assay, OBP11 (SfurOBP11; ligand concentration 18, replicate 2): 23830
- Fluorescence intensity, fluorescence competitive binding assay, OBP11 (SfurOBP11; ligand concentration 18, replicate 3): 23178
- Fluorescence intensity, fluorescence competitive binding assay, OBP11 (SfurOBP11; ligand concentration 20, replicate 1): 23218
- Fluorescence intensity, fluorescence competitive binding assay, OBP11 (SfurOBP11; ligand concentration 20, replicate 2): 23600
- Fluorescence intensity, fluorescence competitive binding assay, OBP11 (SfurOBP11; ligand concentration 20, replicate 3): 23432
- Fluorescence competitive binding assay, fluorescence intensity (SfurOBP1; ligand concentration 2 (μM)): 5137 and 5021 and 5229
- Fluorescence competitive binding assay, fluorescence intensity (SfurOBP1; ligand concentration 4 (μM)): 5910 and 6306 and 5547
- Fluorescence competitive binding assay, fluorescence intensity (SfurOBP1; ligand concentration 6 (μM)): 6300 and 6430 and 6367
- Fluorescence competitive binding assay, fluorescence intensity (SfurOBP1; ligand concentration 8 (μM)): 6419 and 6500 and 6466
- Fluorescence competitive binding assay, fluorescence intensity (SfurOBP1; ligand concentration 10 (μM)): 6532 and 6517 and 6502
- Fluorescence competitive binding assay, fluorescence intensity (SfurOBP1; ligand concentration 12 (μM)): 6620 and 6292 and 6471
- Fluorescence competitive binding assay, fluorescence intensity (SfurOBP1; ligand concentration 14 (μM)): 6713 and 6503 and 6353
- Fluorescence competitive binding assay, fluorescence intensity (SfurOBP1; ligand concentration 16 (μM)): 6541 and 6507 and 6533
- Fluorescence competitive binding assay, fluorescence intensity (SfurOBP1; ligand concentration 18 (μM)): 7558 and 7106 and 6654
- Fluorescence competitive binding assay, fluorescence intensity (SfurOBP1; ligand concentration 20 (μM)): 6949 and 7724 and 7337
- pIC50 (SfurOBP1; SfurOBP1, protein and 1-NPN both 2.0 µM, competitor 2-20 µM, read-out: IC50): < 4.70
- pIC50 (SfurOBP2; SfurOBP2, protein and 1-NPN both 2.0 µM, competitor 2-20 µM, read-out: IC50): 4.76
- Fluorescence competitive binding assay, OBP2 (raw fluorescence reading) (SfurOBP2; ligand concentration 2 (unit not given), replicate column 1 of 3): 13495
- Fluorescence competitive binding assay, OBP2 (raw fluorescence reading) (SfurOBP2; ligand concentration 2 (unit not given), replicate column 2 of 3): 16165
- Fluorescence competitive binding assay, OBP2 (raw fluorescence reading) (SfurOBP2; ligand concentration 2 (unit not given), replicate column 3 of 3): 17504
- Fluorescence competitive binding assay, OBP2 (raw fluorescence reading) (SfurOBP2; ligand concentration 4 (unit not given), replicate column 1 of 3): 14292
- Fluorescence competitive binding assay, OBP2 (raw fluorescence reading) (SfurOBP2; ligand concentration 4 (unit not given), replicate column 2 of 3): 14770
- Fluorescence competitive binding assay, OBP2 (raw fluorescence reading) (SfurOBP2; ligand concentration 4 (unit not given), replicate column 3 of 3): 18258
- Fluorescence competitive binding assay, OBP2 (raw fluorescence reading) (SfurOBP2; ligand concentration 6 (unit not given), replicate column 1 of 3): 13188
- Fluorescence competitive binding assay, OBP2 (raw fluorescence reading) (SfurOBP2; ligand concentration 6 (unit not given), replicate column 2 of 3): 14373
- Fluorescence competitive binding assay, OBP2 (raw fluorescence reading) (SfurOBP2; ligand concentration 6 (unit not given), replicate column 3 of 3): 14976
- Fluorescence competitive binding assay, OBP2 (raw fluorescence reading) (SfurOBP2; ligand concentration 8 (unit not given), replicate column 1 of 3): 12682
- Fluorescence competitive binding assay, OBP2 (raw fluorescence reading) (SfurOBP2; ligand concentration 8 (unit not given), replicate column 2 of 3): 13401
- Fluorescence competitive binding assay, OBP2 (raw fluorescence reading) (SfurOBP2; ligand concentration 8 (unit not given), replicate column 3 of 3): 14572
- Fluorescence competitive binding assay, OBP2 (raw fluorescence reading) (SfurOBP2; ligand concentration 10 (unit not given), replicate column 1 of 3): 12390
- Fluorescence competitive binding assay, OBP2 (raw fluorescence reading) (SfurOBP2; ligand concentration 10 (unit not given), replicate column 2 of 3): 12956
- Fluorescence competitive binding assay, OBP2 (raw fluorescence reading) (SfurOBP2; ligand concentration 10 (unit not given), replicate column 3 of 3): 13308
- Fluorescence competitive binding assay, OBP2 (raw fluorescence reading) (SfurOBP2; ligand concentration 12 (unit not given), replicate column 1 of 3): 11320
- Fluorescence competitive binding assay, OBP2 (raw fluorescence reading) (SfurOBP2; ligand concentration 12 (unit not given), replicate column 2 of 3): 12682
- Fluorescence competitive binding assay, OBP2 (raw fluorescence reading) (SfurOBP2; ligand concentration 12 (unit not given), replicate column 3 of 3): 13112
- Fluorescence competitive binding assay, OBP2 (raw fluorescence reading) (SfurOBP2; ligand concentration 14 (unit not given), replicate column 1 of 3): 11586
- Fluorescence competitive binding assay, OBP2 (raw fluorescence reading) (SfurOBP2; ligand concentration 14 (unit not given), replicate column 2 of 3): 11754
- Fluorescence competitive binding assay, OBP2 (raw fluorescence reading) (SfurOBP2; ligand concentration 14 (unit not given), replicate column 3 of 3): 12906
- Fluorescence competitive binding assay, OBP2 (raw fluorescence reading) (SfurOBP2; ligand concentration 16 (unit not given), replicate column 1 of 3): 10605
- Fluorescence competitive binding assay, OBP2 (raw fluorescence reading) (SfurOBP2; ligand concentration 16 (unit not given), replicate column 2 of 3): 10448
- Fluorescence competitive binding assay, OBP2 (raw fluorescence reading) (SfurOBP2; ligand concentration 16 (unit not given), replicate column 3 of 3): 11282
- Fluorescence competitive binding assay, OBP2 (raw fluorescence reading) (SfurOBP2; ligand concentration 18 (unit not given), replicate column 1 of 3): 14498
- Fluorescence competitive binding assay, OBP2 (raw fluorescence reading) (SfurOBP2; ligand concentration 18 (unit not given), replicate column 2 of 3): 14899
- Fluorescence competitive binding assay, OBP2 (raw fluorescence reading) (SfurOBP2; ligand concentration 18 (unit not given), replicate column 3 of 3): 13250
- Fluorescence competitive binding assay, OBP2 (raw fluorescence reading) (SfurOBP2; ligand concentration 20 (unit not given), replicate column 1 of 3): 13545
- Fluorescence competitive binding assay, OBP2 (raw fluorescence reading) (SfurOBP2; ligand concentration 20 (unit not given), replicate column 2 of 3): 12591
- Fluorescence competitive binding assay, OBP2 (raw fluorescence reading) (SfurOBP2; ligand concentration 20 (unit not given), replicate column 3 of 3): 11415
SMILES: CCCCCCCCCCCCCCCC [n-hexadecane]
